Test results taken from PubChem BioAssay (NCI).
Several values for one entry are separate records, joined by “and”; a condition that tells them apart may be missing. Equal values may be shown once.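 These data come from cells grown in 96-well plates and exposed to compound for 48 hours at five concentrations. Here, GI50 denotes the concentration required for 50% inhibition of growth. TGI: total growth inhibition.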

Key:
Assay in all cases: NCI tumour cell line growth inhibition, 48 h
A498 renal = system: A498 renal
ACHN renal = system: ACHN renal
DU-145 prostate = system: DU-145 prostate
EKVX NSCLC = system: EKVX NSCLC
K-562 leukemia = system: K-562 leukemia
MOLT-4 leukemia = system: MOLT-4 leukemia
NCI-H23 lung = system: NCI-H23 lung
PC-3 prostate = system: PC-3 prostate
SF-268 CNS = system: SF-268 CNS
T-47D breast = system: T-47D breast

Structure (SMILES)	GI50 (A498 renal) [µM]	TGI (A498 renal)	GI50 (ACHN renal) [µM]	TGI (ACHN renal)	GI50 (DU-145 prostate) [µM]	TGI (DU-145 prostate)	GI50 (EKVX NSCLC) [µM]	TGI (EKVX NSCLC)	GI50 (K-562 leukemia) [µM]	TGI (K-562 leukemia) [µM]	GI50 (MOLT-4 leukemia) [µM]	TGI (MOLT-4 leukemia)	GI50 (NCI-H23 lung) [µM]	TGI (NCI-H23 lung)	GI50 (PC-3 prostate) [µM]	TGI (PC-3 prostate) [µM]	GI50 (SF-268 CNS) [µM]	TGI (SF-268 CNS)	GI50 (T-47D breast) [µM]	TGI (T-47D breast)
c1ccc2c(-c3cnn4cc(-c5ccc(N6CCNCC6)cc5)cnc34)ccnc2c1	1.43	2.87 µM	1.09	2.29 µM	0.739	2.06 µM	1.89	3.76 µM	0.226	0.696	0.885	2.34 µM	1.48	3.05 µM	0.316	1.52	1.43	2.8 µM	1.42	3.2 µM
O=C(c1ccccc1)c1ccc(O)c2ncccc12	9.29	27.4 µM	3.46	15.7 µM	5.72	27.6 µM	3.09	56.1 µM	3.4	> 100	3.16	> 100 µM	4.85	19.6 µM	4.36	97.6	3.11	> 100 µM	3.14	15.3 µM
CNC(C)[C@H]1CCC2C3CCC4C[C@@H](N(C)C(=O)c5ccccc5)CC[C@]4(C)C3CC[C@@]21C (some centres not stated)	1.65	10.2 µM	2.37	9.59 µM	3.46	16.6 µM	0.613	6.3 µM	0.351	2.46	1.02	3.46 µM	0.737	4.96 µM	0.969	3.52	1.16	3.21 µM	0.37	4.26 µM
COc1ccc(C2CC(c3cccc(OC)c3)=NN2C(=O)c2cc(OC)c(OC)c(OC)c2)cc1 (configuration not stated)	1.12		5.54	> 100 µM	2.66	> 41.6 µM	3.35	> 100 µM	0.431	> 20.5	2.14	> 100 µM	2.76	> 100 µM	0.882	> 100	4.09	> 100 µM	3.02	> 100 µM
Cc1[nH]c(=O)nc(N/N=C/c2ccc(Cl)cc2)c1C(=O)Nc1ccc(Cl)cc1		57.2 µM		> 89.2 µM		> 100 µM		> 100 µM		> 85.1		> 91.9 µM		> 93.1 µM		> 100		> 100 µM		> 85.4 µM
Nc1cc(N)cc(Cc2ccccc2)c1		> 100 µM		> 100 µM		> 100 µM		> 100 µM		> 100		> 100 µM		> 100 µM		> 100		> 100 µM		> 100 µM
CCOC(=O)Nc1ccc(C(=O)/C=C/c2ccccc2)cc1	26.1	72.6 µM	22.2	52.3 µM	22.8	85.1 µM	37.5	> 100 µM	8.28	> 100	27.9	> 100 µM	23.7	61.1 µM	30.9	> 100	23.8	69 µM	21.6	> 100 µM
CC(=O)[O][Hg][CH2]C1(C)COC(C)([CH2][Hg][O]C(C)=O)CO1 (configuration not stated)	19.4	34.8 µM	1.5	2.84 µM	10.4	23.1 µM	18.4	36.3 µM	0.607	2.71	0.747	3.14 µM	13.2	29.3 µM	16.6	37.5	4.73	9.17 µM	2.94	21.4 µM
Cc1cccc2c(N=Nc3ccccc3[N+](=O)[O-])c(O)[nH]c12		> 38.3 µM		18.8 µM		> 100 µM		33.6 µM		> 100		> 100 µM		23.4 µM		38.4		33.3 µM		21.9 µM
CN(N=O)C(=O)Nc1ccc(C(=O)O)cc1		> 100 µM		> 100 µM		> 100 µM		> 100 µM		> 100		> 100 µM		> 100 µM		> 100		> 100 µM		> 100 µM
CCCCCCCC(=O)NS(=O)(=O)c1ccccc1		> 100 µM		> 100 µM		> 100 µM		> 100 µM		> 100		> 100 µM		> 100 µM		> 100		> 100 µM		> 100 µM
COc1ccc(Nc2ncc(-c3ccccc3)o2)cc1OC	7.77	> 25 µM	8.59	> 25 µM	10.7	> 25 µM	> 25	> 25 µM	8.3	> 25	13.6	> 25 µM	> 25	> 25 µM	17.6	> 25	> 17.2	> 25 µM	24.7	> 25 µM
C=C1C(=O)O[C@H]2[C@H]1CC/C(COC(=O)C(=O)c1c[nH]c3ccc(Cl)cc13)=C\CC[C@@]1(C)O[C@@H]21	2.75	5.54 µM	1.32	2.7 µM	1.9	4.13 µM	2.06	5.03 µM	1.58	6.18	0.778	5.47 µM	1.65	3.31 µM	1.76	3.57	1.73	3.97 µM	1.62	3.77 µM
N#CSCC1CC(O)(c2ccccc2)CC(c2ccc(Cl)cc2)O1 (configuration not stated)	1.88	8.63 µM	2.78	8.25 µM	2.18	4.72 µM	4.19	17.7 µM	2.41	9.77	1.29	5 µM	2.41	6.53 µM	2.47	7.49	1.8	3.29 µM	1.7	6.27 µM
CC(=O)OC1CC2(O)C(CCC3(C)C(c4ccc(=O)oc4)CCC32O)C2(C)CCC(OC3OC(CO)C(O)C(O)C3O)C=C12 (configuration not stated)	0.0339	0.287 µM	< 0.01	0.036 µM	0.0183	0.0594 µM	0.0135	0.0419 µM	0.0295	0.175	< 0.01	0.015 µM	0.0114	0.0539 µM	0.0248	0.125	0.0112	0.04 µM	0.0402	0.837 µM
Cc1ccc(S(=O)(=O)NNC(C[N+](=O)[O-])c2ccccc2)cc1 (configuration not stated)		30.8 µM		40.9 µM		> 100 µM		> 100 µM		> 100		> 100 µM		> 100 µM		> 100		35.7 µM		57.5 µM
CC1=C/C(O)CC(=O)Cc2nc(co2)C(=O)N2CCC=C2C(=O)OC(C(C)C)C(C)/C=C\C(=O)NC/C=C\1 (configuration not stated)	44.9	> 84.1 µM and 76.3 µM	31.8	> 100 µM and 29.7 µM	18.5	45.2 µM and > 100 µM	36.4	> 100 µM and 53.3 µM	> 59.5	> 100	8.54	> 32.6 µM and 53.5 µM	14.2	44.4 µM and 37.7 µM	65.4	> 100	20.9	54.4 µM and 43.4 µM	8.3	> 48.5 µM and 36.8 µM
C=C1[C@@H](O)C[C@H]2C(C)(C)C[C@H](Cl)C[C@]2(C)[C@H]1C[C@H](O)[C@H]1CC(=O)NC1=O	0.0207	0.0723 µM	0.0166	0.176 µM	0.0166	0.165 µM	0.0157	0.128 µM	0.0121		< 0.01		0.0193	0.15 µM	0.0174	0.264	0.0179	0.526 µM	< 0.0113	0.0819 µM
CNC12C3C4C1C1C2C3C41C(=O)N[C@H](C(=O)N(C)[C@H](C[C@@H](OC(C)=O)c1nc(C(=O)N[C@@H](Cc2ccccc2)C[C@H](C)C(=O)OC)cs1)C(C)C)C1CC1 (some centres not stated)	1.06	> 10.9 µM	0.901	> 15 µM	0.317	> 3.68 µM	1.95	> 15 µM	0.0667	> 15	0.467	> 13.6 µM	0.511	> 15 µM	0.391	> 15	0.354	> 10.6 µM	1.38	> 15 µM
Cc1ccc(NC(=O)N2CCCCC2)cc1[N+](=O)[O-]	87.8	> 100 µM	> 100	> 100 µM	> 100	> 100 µM	> 100	> 100 µM	> 100	> 100	> 100	> 100 µM	> 100	> 100 µM	> 100	> 100	> 100	> 100 µM	77.1	> 100 µM
